Reference: US9695155B2, “Herbicidal substituted pyrimidinyloxy benzene compounds” (E. I. DU PONT DE NEMOURS AND COMPANY, priority 2013, dated 2017)

Experiments:
galium = test: Test C postemergence; assay type: in vivo, Galium aparine; conditions: for Plant response rating (0 to 100), Galium: postemergence; for Plant response rating, Galium: Postemergence, scale 0 to 100 (0 no effect, 100 complete control)
In short: (§1)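 Visual injury score versus untreated controls, 0 = no effect, 100 = complete control, taken 13 to 15 days after treatment in the greenhouse. Pre-emergence pots held loam/sand; post-emergence plants grew in sphagnum peat/vermiculite mix and were sprayed at the 1- to 4-leaf stage.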

large (Lg) crabgrass = test: Test A postemergence; assay type: in vivo, Digitaria sanguinalis
In short: (§2)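 Scoring: eye-based comparison with untreated controls, 0 for no effect through 100 for complete control, at about day 10. Treatments: directed soil spray preemergence; foliar spray postemergence on 2–10 cm plants at the one- to two-leaf stage. Medium: loam soil with sand.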

oilseed rape = test: Test C postemergence; assay type: in vivo, Brassica napus; conditions: for Plant response rating (0 to 100), Oilseed Rape: postemergence; for Plant response rating, Oilseed Rape: Postemergence, scale 0 to 100 (0 no effect, 100 complete control)
In short: as §1

giant foxtail [1] = test: Test A postemergence; assay type: in vivo, Setaria faberii; conditions: 0 to 100 scale where 0 is no effect and 100 is complete control
In short: as §2

pigweed = test: Test A postemergence; assay type: in vivo, Amaranthus retroflexus; conditions: 0 to 100 scale where 0 is no effect and 100 is complete control
In short: as §2

giant foxtail [2] = test: Test A preemergence; assay type: in vivo, Setaria faberii
In short: as §2

waterhemp = test: Test C postemergence; assay type: in vivo, Amaranthus rudis; conditions: for Plant response rating (0 to 100), Waterhemp: postemergence; for Plant response rating, Waterhemp: Postemergence, scale 0 to 100 (0 no effect, 100 complete control)
In short: as §1

wheat = test: Test A preemergence; assay type: in vivo, Triticum aestivum
In short: as §2

lambsquarters = test: Test C postemergence; assay type: in vivo, Chenopodium album; conditions: for Plant response rating (0 to 100), Lambsquarters: postemergence; for Plant response rating, Lambsquarters: Postemergence, scale 0 to 100 (0 no effect, 100 complete control)
In short: as §1

sedge, umbrella = test: Test B flooded paddy test; assay type: in vivo, Cyperus difformis; conditions: Flood, 250 g ai/ha; 0 to 100 scale where 0 is no effect and 100 is complete control
In short: (§3)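 2-leaf stage plants; pots flooded to 3 cm, compound added to paddy water, depth maintained. Greenhouse 13–15 d. Visual rating vs untreated controls, 0 (no effect) to 100 (complete control); dash = no result.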

barnyardgrass = test: Test B flooded paddy test; assay type: in vivo, Echinochloa crus-galli; conditions: Flood, 250 g ai/ha; 0 to 100 scale where 0 is no effect and 100 is complete control
In short: as §3

rice = test: Test B flooded paddy test; assay type: in vivo, Oryza sativa; conditions: Flood, 250 g ai/ha; 0 to 100 scale where 0 is no effect and 100 is complete control
In short: as §3

soybean = test: Test C postemergence; assay type: in vivo, Glycine max; conditions: for Plant response rating (0 to 100), Soybean: postemergence
In short: as §1

Italian ryegrass = test: Test C postemergence; assay type: in vivo, Lolium multiflorum; conditions: for Plant response rating (0 to 100), Ryegrass, Italian: postemergence; for Plant response rating, Ryegrass, Italian: Postemergence, scale 0 to 100 (0 no effect, 100 complete control)
In short: as §1

chickweed = test: Test C postemergence; assay type: in vivo, Stellaria media; conditions: for Plant response rating (0 to 100), Chickweed: postemergence; for Plant response rating, Chickweed: Postemergence, scale 0 to 100 (0 no effect, 100 complete control)
In short: as §1

corn = test: Test A preemergence; assay type: in vivo, Zea mays
In short: as §2

[3] = 125 g ai/ha, 0 to 100 scale where 0 is no effect and 100 is complete control
[4] = 500 g ai/ha, 0 to 100 scale, 0 no effect, 100 complete control, approx. 10 days

## N#Cc1cccc(Oc2ncc(Cl)cn2)c1-n1cc(Cl)cn1 [Compound 72]
galium; 125 g ai/ha
  Plant response rating (0 to 100), Galium: 95
galium; 250 g ai/ha
  Plant response rating (0 to 100), Galium: 95
galium; 31 g ai/ha, 13 to 15 days
  Plant response rating, Galium: 75
galium; 62 g ai/ha
  Plant response rating, Galium: 80
Large (Lg) crabgrass; [3]
  Plant response rating, Crabgrass, Large: 100
Large (Lg) crabgrass; 500 g ai/ha, 0 to 100 scale, 0 no effect, 100 complete control
  Plant response rating, Crabgrass, Large: 100
Oilseed rape; 125 g ai/ha
  Plant response rating (0 to 100), Oilseed Rape: 70
Oilseed rape; 250 g ai/ha
  Plant response rating (0 to 100), Oilseed Rape: 90
Oilseed rape; 31 g ai/ha, 13 to 15 days
  Plant response rating, Oilseed Rape: 55
Oilseed rape; 62 g ai/ha
  Plant response rating, Oilseed Rape: 70
Giant foxtail [1]; 125 g ai/ha
  Plant response rating, Foxtail, Giant: 90
Giant foxtail [1]; 500 g ai/ha
  Plant response rating, Foxtail, Giant: 100
pigweed; 125 g ai/ha
  Plant response rating, Pigweed: 100
pigweed; 500 g ai/ha
  Plant response rating, Pigweed: 100
Giant foxtail [2]; [3]
  Plant response rating, Foxtail, Giant: 100
Giant foxtail [2]; [4]
  Foxtail, Giant plant response rating: 100
waterhemp; 125 g ai/ha
  Plant response rating (0 to 100), Waterhemp: 75
waterhemp; 250 g ai/ha
  Plant response rating (0 to 100), Waterhemp: 95
waterhemp; 31 g ai/ha, 13 to 15 days
  Plant response rating, Waterhemp: 75
waterhemp; 62 g ai/ha
  Plant response rating, Waterhemp: 75
wheat; [3]
  Plant response rating, Wheat: 20
wheat; [4]
  Wheat plant response rating: 60
lambsquarters; 125 g ai/ha
  Plant response rating (0 to 100), Lambsquarters: 85
lambsquarters; 250 g ai/ha
  Plant response rating (0 to 100), Lambsquarters: 98
lambsquarters; 31 g ai/ha, 13 to 15 days
  Plant response rating, Lambsquarters: 75
lambsquarters; 62 g ai/ha
  Plant response rating, Lambsquarters: 75
sedge, umbrella
  Plant response rating, Sedge, Umbrella: 85
barnyardgrass
  Plant response rating, Barnyardgrass: 0
rice
  Plant response rating, Rice: 0
soybean; 125 g ai/ha
  Plant response rating (0 to 100), Soybean: 90
soybean; 250 g ai/ha
  Plant response rating (0 to 100), Soybean: 95
soybean; Postemergence, 62 g ai/ha, scale 0 to 100 (0 no effect, 100 complete control)
  Plant response rating, Soybean: 80
Italian ryegrass; 125 g ai/ha
  Plant response rating (0 to 100), Ryegrass, Italian: 10
Italian ryegrass; 250 g ai/ha
  Plant response rating (0 to 100), Ryegrass, Italian: 10
Italian ryegrass; 31 g ai/ha, 13 to 15 days
  Plant response rating, Ryegrass, Italian: 5
Italian ryegrass; 62 g ai/ha
  Plant response rating, Ryegrass, Italian: 5
chickweed; 125 g ai/ha
  Plant response rating (0 to 100), Chickweed: 80
chickweed; 250 g ai/ha
  Plant response rating (0 to 100), Chickweed: 80
chickweed; 31 g ai/ha, 13 to 15 days
  Plant response rating, Chickweed: 50
chickweed; 62 g ai/ha
  Plant response rating, Chickweed: 65
corn; [3]
  Plant response rating, Corn: 30
corn; [4]
  Corn plant response rating: 50
